# Assay results published in patent publication US8022052B2, “Inhibition of PPAR gamma expression by specific osteogenic oxysterols” (The Regents of the University of California, priority 2006, dated 2011).
# Entries after “also recorded” stand apart in the source; their conditions may differ. Where two headings read alike, the source gives them in different places.
# B1: Dkk-1: canonical Wnt signaling inhibitor (protein, UniProt O94907 32-266, looked up)
# Dickkopf-related protein 1: TLNSVLNSNAIKNLPPPLGGAAGHPGSAVSAAPGILYPGGNKYQTIDNYQPYPCAEDEECGTDEYCASPTRGGDAGVQICLACRKRRKRCMRHAMCCPGNYCKNGICVSSDQNHFRGEIEETITESFGNDHSTLDGYSRRTTLSSKMYHTKGQEGSVCLRSSDCASGLCCARHFWSKICKPVLKEGQVCTKHRRKGSHGLEIFQRCYCGEGLSCRIQKDHHQASNSSRLHTCQRH
# Legend:
# [1] = test system: M2-10B4 (M2) murine pluripotent bone MSC line; experiment: Tro-induced adipocyte formation in M2 cells, Oil red O staining; format: cell-based, mouse; conditions: for inhibition of Tro-induced adipocyte formation: M2 cells, oxysterol 5 μM
# Description: (§1) M2 mouse MSCs were purchased from American Type Culture Collection (ATCC, Rockville, Md., USA). […] Cell culture was performed in 24- and 6-well plates for adipogenic differentiation and gene expression studies, respectively, and treatment with test agents was done in growth medium.
# Oil red O staining for detection of adipocytes was performed as previously described. […] The number of adipocytes was quantitated by counting Oil red O-positive cells in five separate fields per well, in three wells per experimental condition. The results are reported as the mean of triplicate determination ±SD.
# (§2) Adipocyte formation was examined by Oil red O staining. […] PPARγ expression was assessed by RT-qPCR after treating M2 cells with Tro in the presence or absence of 20S. […] M2 cells at confluence were treated with control vehicle, 10 μM Tro, or 5 μM 20S, alone or in combination for 24 hours (FIG. 2A), 48 hours (FIG. 2B), and 96 hours (FIG. 2C). PPARγ mRNA expression was measured by quantitative real-time PCR.
# (§3) After 10 days, adipocyte formation was measured by Oil red O staining. The number of adipocytes was determined by counting Oil red O-positive cells in five separate fields per well, in three wells per experimental condition. […] After 48 h, PPARγ mRNA expression was measured by quantitative real-time PCR. […] Luciferase activity was measured after 24 h and normalized for transfection efficiency using the Renilla luciferase activity.
# Synthetic oxysterol compounds were studied for inhibition of adipogenesis and PPAR expression. […] After 10 days of treatment, cells were stained with Oil-red-O to detect adipocytes, and the number of positively stained cells was determined using light microscopy. Data from a representative experiment are reported as the mean of triplicate determination (average of five fields per well, 3 wells per experimental condition) ±SD.
# M2 cells = experiment: 45Ca incorporation assay measuring mineralization in M2 cells; format: cell-based
# Description: One aspect of the invention is an oxysterol (e.g. an isolated oxysterol) of the invention as represented by Formula I, above. For example, the compounds designated as Oxy 7, Oxy 9, Oxy11, Oxy12, Oxy13, Oxy 14, and Oxy 15 can stimulate at least a measurable amount of a hedgehog-mediated pathway and/or osteomorphogenesis or osteoproliferation (or a marker thereof), and/or can inhibit at least a measurable amount of adipocyte morphogenesis or adipocyte proliferation (or a marker thereof). Oxy 3 and Oxy 4 can act as enhancers of activity in combination with other oxysterols.
# PPARγ = PPARγ mRNA expression in M2 cells by RT-qPCR; format: cell-based, mouse; conditions: for reversal of the inhibitory effect of 20S on Tro-induced PPARγ expression: signaling inhibitor
# Description: as §1
# (§4) Total RNA was extracted with the RNA isolation kit from Stratagene (La Jolla, Calif., USA) according to the manufacturer's instructions. RNA was DNase-treated using DNA-free kit from Ambion (Austin, Tex., USA). Three micrograms of RNA was reverse-transcribed using reverse transcriptase from Stratagene to make single-stranded cDNA. The cDNA was mixed with Qi SYBR Green Supermix (Bio-Rad) for quantitative RT-PCR assay using a Bio-Rad I-cycler IQ quantitative thermocycler. All PCR samples were prepared in triplicate wells of a 96-well plate. After 40 cycles of PCR, melt curves were examined to ensure primer specificity. Fold changes in gene expression were calculated using the ΔΔCt method. […] Primers used are as follows: PPARγ2 (5′-[…]-3′ and 5′-[…]-3′), C/EBPα (5′-[…]-3′ and 5′-[…]-3′), ap2 (5′-[…]-3′ and 5′-[…]-3′), LPL (5′-[…]-3′ and 5′-[…]-[…]), GATA2 (5′-[…]-3′ and 5′-[…]-3′), GATA3 (5′-[…]-3′ and 5′-[…]-3′), GILZ (5′-[…]-3′ and 5′-[…]-3′), and pref-1 (5′-[…]-3′ and 5′-[…]-3′).
# as §2, §3
# After 48 hours of treatment, RNA was extracted from cells and analyzed for PPARγ expression by Q-RT-PCR. Data from a representative experiment, normalized to GAPDH expression, are reported as the mean of triplicate determinations ±SD.
# [2] = test system: M2-10B4 (M2) murine pluripotent bone MSC line; conditions: cited from earlier work
# aP2 = aP2 mRNA expression in M2 cells by quantitative real-time PCR; format: cell-based, mouse; conditions: cyclopamine, data not shown
# Description: . M2 cells at confluence were treated with control vehicle, 10 μM Tro, or 5 μM 20S, alone or in combination for 24 hours (FIG. 4A), 48 hours (FIG. 4B), and 96 hours (FIG. 4C). aP2 mRNA expression was measured by quantitative real-time PCR. Fold changes in gene expression relative to the control were calculated using the ΔΔCt method and reported as the mean of triplicate determination ±SD (p<0.0001 for Tro or Tro+20S vs. control or 20S and p<0.01 for Tro vs. Tro+20S at 24 hours (FIG. 4A); p<0.0001 for Tro or Tro+20S vs. control or 20S and for Tro vs. Tro+20S at 48 hours (FIG. 4B); p<0.0001 for Tro vs. control, 20S, or Tro+20S and p<0.001 for Tro+20S vs. control or 20S at 96 hours (FIG. 4C)).
# LPL = conditions: cyclopamine, data not shown
# Description: as §4
molecule,measurement,setting,value
"CC(C)CCCC[C@](C)(O)C1CCC2C3CC=C4C[C@@H](O)CC[C@]4(C)C3CC[C@@]21C (stereo partly drawn) [Oxy12, (3S,8S,9S,10R,13S,14S,17S)-2,3,4,7,8,9,10,11,12,13,14,15,16,17-tetradecahydro-17-((S)-2-hydroxy-7-methyloctan-2-yl)-10,13-dimethyl-1H-cyclopenta[α]phenanthren-3-ol]",inhibition of Tro-induced adipocyte formation,"[1]; 10 μM Tro, 10 days",inhibitory effect
C[C@H](O)[C@@H](C)C1CCC2C3CC=C4C[C@@H](O)CC[C@]4(C)C3CC[C@@]21C (stereo partly shown) [Oxy4],incorporation of 45Ca in combination with 20(S)-hydroxycholesterol over 20(S)-hydroxycholesterol alone,M2 cells,enhance
CC(C)=CCC[C@](C)(O)C1CCC2C3CC=C4C[C@@H](O)CC[C@]4(C)C3CC[C@@]21C (stereo partly shown) [Oxy14],inhibition of Tro-induced adipocyte formation,"[1]; 10 μM Tro, 10 days",inhibitory effect
COc1cccc(-c2cc(=O)c3ccccc3o2)c1N [PD98059],reversal of the inhibitory effects of 20S on Tro-induced adipocyte formation,"[1]; 10-day M2 cultures, Cyclopamine 4 μM, Dkk-1 1 μg/mL, PD98059 20 μM",50%
same,reversal of the inhibitory effect of 20S on Tro-induced PPARγ expression,PPARγ; M2 cells,45%
CC[C@H](O)[C@@H](C)C1CCC2C3CC=C4C[C@@H](O)CC[C@]4(C)C3CC[C@@]21C (stereo partly shown) [Oxy 3],incorporation of 45Ca in combination with 20(S)-hydroxycholesterol over 20(S)-hydroxycholesterol alone,M2 cells,enhance
CC(C)CC[C@@H](O)[C@](C)(O)C1CCC2C3CC=C4C[C@@H](O)CC[C@]4(C)C3CC[C@@]21C (stereo partly shown) [Oxy16],inhibition of Tro-induced adipocyte formation,"[1]; 10 μM Tro, 10 days",inhibitory effect
"CC(C)CC[C@@H](O)[C@@H](C)[C@H]1CC[C@H]2[C@@H]3CC=C4C[C@@H](O)CC[C@]4(C)[C@H]3CC[C@]12C [Oxy 22R, 22(R)-hydroxycholesterol]",adipogenic differentiation of M2 cells (previously reported),[2],inhibit
CC1=C2C[C@H]3[C@@H](CC=C4C[C@@H](O)CC[C@@]43C)[C@@H]2CC[C@]12O[C@@H]1C[C@H](C)CN[C@H]1[C@H]2C [cyclopamine],reversal of the inhibitory effects of 20S on Tro-induced adipocyte formation,[1],70%
same,reversal of the inhibitory effects of Shh on Tro-induced adipocyte formation,[1],100%
same,reversal of the anti-adipogenic effects of 20S (in words),"[1]; 4 μM cyclopamine 2-h pretreatment, 10 μM Tro, 5 μM 20S, 10 days",reversed; also recorded: blocks; also recorded: did not completely reverse
same,reversal of the anti-adipogenic effects of Shh (in words),"[1]; cyclopamine 2-h pretreatment, 10 μM Tro, 200 ng/mL Shh, 10 days",completely reversed; also recorded: blocks
same,additional effect on adipocyte formation of increasing the dose of cyclopamine,"[1]; cyclopamine from 4 to 8 μM, Tro+20S, data not shown",did not have any additional effect
same,reversal of the inhibitory effect of 20S on Tro-induced PPARγ mRNA expression (in words),PPARγ,fully reversed; also recorded: completely abolished; also recorded: blocks; also recorded: completely blocked
same,reversal of the inhibitory effect of Shh on Tro-induced PPARγ mRNA expression (in words),PPARγ,fully reversed; also recorded: completely abolished; also recorded: blocks; also recorded: completely reversed; also recorded: completely blocked
same,reversal of the inhibitory effects of 20S on aP2 expression,aP2,reversed
same,reversal of the inhibitory effects of 20S on LPL expression,LPL,reversed
"CC(C)CC[C@H](O)[C@@H](C)[C@H]1CC[C@H]2[C@@H]3CC=C4C[C@@H](O)CC[C@]4(C)[C@H]3CC[C@]12C [Oxy 22S, 22(S)-hydroxycholesterol]",adipogenic differentiation of M2 cells (previously reported),[2],inhibit
C=C(C)CCC[C@](C)(O)C1CCC2C3CC=C4C[C@@H](O)CC[C@]4(C)C3CC[C@@]21C (stereo partly shown) [Oxy13],inhibition of Tro-induced adipocyte formation,"[1]; 10 μM Tro, 10 days",inhibitory effect
same,inhibition of Tro-induced PPARγ mRNA expression,"PPARγ; M2 cells, 10 μM Tro, oxysterol 5 μM, 24, 48, 96 h (20S), 48 h (Oxy13)",inhibits
Cc1cccc(C[C@](C)(O)C2CCC3C4CC=C5C[C@@H](O)CC[C@]5(C)C4CC[C@@]32C)c1 (stereo partly shown) [Oxy11],inhibition of Tro-induced adipocyte formation,"[1]; 10 μM Tro, 10 days",inhibitory effect
B1,reversal of the inhibitory effect of 20S on Tro-induced PPARγ expression,PPARγ; M2 cells,10%
